The test system of data set [1] is Leishmania major. Put plainly: Antileishmanial activity against […] promastigote form of Leishmania major assessed as inhibition of parasite growth by alamar-blue reduction assay. Type of data set: functional, organism-based.
The test system of data set [2] is Leishmania major. Put plainly: Antileishmanial activity against intracellular amastigotes form of Leishmania major assessed as inhibition of parasite growth by alamar-blue reduction assay. Type of data set: functional, organism-based. On the technique in general: Resazurin is reduced to fluorescent resorufin, in cell work by metabolically active cells.
The subject of another data set is Leishmania infantum. Put plainly: Antileishmanial activity against Leishmania infantum MHOM/MA(BE)/67 infected in mouse peritoneal macrophage cell incubated for 5 days by giemsa staining based analysis. The conditions noted are these: MHOM/MA(BE)/67, Peritoneal macrophage cell, 120 h. Type of data set: functional, organism-based.
The test system of data set [3] is Leishmania major. Nature of the data set: Antileishmanial activity against Leishmania major promastigotes assessed as parasite survival measured after 72 hrs by hemocytometric analysis relative to control. Type of data set: functional.
Data set [4] has as its system Leishmania major. Nature of the data set: Antileishmanial activity against Leishmania major promastigotes assessed as parasite survival preincubated with 20 uM folic acid for 1 hrs followed by compound addition and measured after 48 hrs by hemocytometric analysis relative to control. Type of data set: functional.
The subject of data set [5] is Leishmania major. Put plainly: Antileishmanial activity against Leishmania major promastigotes assessed as parasite survival preincubated with 100 uM folic acid for 1 hrs followed by compound addition and measured after 48 hrs by hemocytometric analysis relative to control. Type of data set: functional.
In data set [6] the test system is Leishmania major. Put plainly: Antileishmanial activity against Leishmania major promastigotes assessed as parasite survival preincubated with 20 uM folinic acid for 1 hrs followed by compound addition and measured after 48 hrs by hemocytometric analysis relative to control. Type of data set: functional.
The subject of data set [7] is Leishmania major. Put plainly: Antileishmanial activity against Leishmania major promastigotes assessed as parasite survival preincubated with 100 uM folinic acid for 1 hrs followed by compound addition and measured after 48 hrs by hemocytometric analysis relative to control. Type of data set: functional.
The nature of data set [8]: Cytotoxicity against African green monkey Vero cells assessed as reduction in cell survival incubated for 72 hrs by crystal violet staining based analysis. Type of data set: toxicity. The conditions noted are these: chlorocebus sabaeus.
Data set [9] can be described thus: Selectivity index, ratio of CC50 for cytotoxicity against African green monkey Vero cells assessed as reduction in cell viability to IC50 for antileishmanial activity against Leishmania major amastigotes assessed as inhibition of parasite growth. Conditions: read-out: Ratio CC50/IC50. Type of data set: toxicity, cell-based.
Data set [10] can be described thus: Hepatotoxicity in male mouse assessed as ALT level at 50 mg/kg, ip measured after 48 hrs (reference value: 28.23 +/- 6.57 U/L). Type of data set: toxicity, organism-based. The conditions noted are these: in vivo.
Data set [11] can be described thus: Hepatotoxicity in male mouse assessed as ALT level at 200 mg/kg, ip measured after 48 hrs (reference value: 28.23 +/- 6.57 U/L). Type of data set: toxicity, organism-based. The conditions noted are these: in vivo.
Data set [12] can be described thus: Hepatotoxicity in male mouse assessed as AST level at 50 mg/kg, ip measured after 48 hrs (reference value: 47.72 +/- 4.77 U/L). Type of data set: toxicity, organism-based. Conditions: in vivo.
Data set [13] in a line: Hepatotoxicity in male mouse assessed as AST level at 200 mg/kg, ip measured after 48 hrs (reference value: 47.72 +/- 4.77 U/L). Type of data set: toxicity, organism-based. The conditions noted are these: in vivo.
Data set [14] in a line: Hepatotoxicity in male mouse assessed as ALP level at 50 mg/kg, ip measured after 48 hrs (reference value: 115.44 +/- 8.03 U/L). Type of data set: toxicity, organism-based. The conditions noted are these: in vivo.
The nature of data set [15]: Hepatotoxicity in male mouse assessed as effect on ALP level at 200 mg/kg, ip measured after 48 hrs (reference value: 115.44 +/- 8.03 U/L). Conditions: in vivo. Type of data set: toxicity, organism-based.
Data set [16] in a line: Renal toxicity in male mouse assessed as serum urea level at 50 mg/kg, ip measured after 48 hrs (reference value: 36.51 +/- 1.51 mg/dl). Type of data set: organism-based. Conditions: in vivo.
A short description of data set [17]: Renal toxicity in male mouse assessed as serum urea level at 200 mg/kg, ip measured after 48 hrs (reference value: 36.51 +/- 1.51 mg/dl). Type of data set: organism-based. Conditions: in vivo.
A short description of data set [18]: Renal toxicity in male mouse assessed as serum creatinine level at 50 mg/kg, ip measured after 48 hrs (reference value: 0.66 +/- 0.02 mg/dl). Type of data set: organism-based. Conditions: in vivo.
Data set [19] is described as follows: Renal toxicity in male mouse assessed as serum creatinine level at 200 mg/kg, ip measured after 48 hrs (reference value: 0.66 +/- 0.02 mg/dl). Type of data set: organism-based. The conditions noted are these: in vivo.
Data set [20] is described as follows: Toxicity in male mouse assessed as CK-MB level at 50 mg/kg, ip measured after 48 hrs (reference value: 41.27 +/- […]). Conditions: in vivo. Type of data set: organism-based.
A short description of data set [21]: Toxicity in male mouse assessed as CK-MB level at 200 mg/kg, ip measured after 48 hrs (reference value: 41.27 +/- […]). Type of data set: organism-based. The conditions noted are these: in vivo.
Data set [22] has as its system Leishmania major. Put plainly: Antileishmanial activity against Leishmania major promastigotes assessed as parasite survival at 100 uM measured after 72 hrs by hemocytometric analysis relative to control.

SMILES strings stand for the structures.

These results are taken from ChEMBL document CHEMBL6109080, “Synthesis and mechanistic insights of Coumarinyl-Indolinone hybrids as potent inhibitors of Leishmania major” (Eur J Med Chem, 2025).

Broadly, the IC50 is the concentration that gives 50% inhibition. Regarding `CC(C)CN1C(=O)C(n2nc(-c3c(O)c4ccccc4oc3=O)cc2-c2ccc(Br)cc2)c2cc(Br)ccc21` (stereo unspecified), the figures for the IC50 with Leishmania major [1] and in the data set on Leishmania major [2] were 6.93 µM and 8.22 µM, respectively.
With `CCCN1C(=O)C(n2nc(-c3c(O)c4ccccc4oc3=O)cc2-c2ccc(Br)cc2)c2cc(Cl)ccc21` (stereo unspecified), the figures for the IC50 in the data set with Leishmania major [1] and with Leishmania major [2] were 4.73 µM and 6.82 µM, respectively.
The corresponding values for `CC(C)CN1C(=O)C(n2nc(-c3c(O)c4ccccc4oc3=O)cc2-c2ccc(F)cc2)c2cc(Cl)ccc21` (stereo unspecified) are 5.71 µM and 7.28 µM.
The corresponding values for `CC(C)CN1C(=O)C(n2nc(-c3c(O)c4ccccc4oc3=O)cc2-c2ccc(F)cc2)c2cc(Br)ccc21` (stereo unspecified) are 6.22 µM and 6.87 µM.
In the case of `O=C(Nc1cc(-c2ccccc2F)n[nH]1)Oc1ccccc1`, the IC50 with Leishmania infantum was 20 µM.
A word on the CC50: it is the concentration at which the toxic effect on the cells reaches its halfway point. For the molecule `O=C1Nc2ccc([N+](=O)[O-])cc2C1n1nc(-c2c(O)c3ccccc3oc2=O)cc1-c1ccc(Cl)cc1` (stereo unspecified), the IC50 came out at 1.43 µM in the data set on Leishmania major [1] and 1.44 µM with Leishmania major [2]. The Survival in the data set with Leishmania major [3] is on record as 21%; with Leishmania major [4], 68%; in the data set with Leishmania major [5] it was 73%; in the data set with Leishmania major [6] it was 78%; in the data set on Leishmania major [7] it was 85%. Also, in [8], the cytotoxic concentration (CC50) at 72 h worked out at 60.7 µM. In [9], the selectivity ratio came to 42.3. Further, the Activity was found to be 29.39 U/L in data set [10]; 32.59 U/L in data set [11]; 45.98 U/L in [12]; 48.89 U/L in data set [13]; 106.35 U/L in data set [14]; 113.63 U/L in [15]. Besides, the Activity in data set [16] is 34.17 mg/dL; in data set [17], 38.32 mg/dL; in data set [18], 0.62 mg/dL; in data set [19], 0.61 mg/dL; in data set [20], 44.71 U/L; in data set [21], 44.71 U/L.
With `O=C1Nc2ccc([N+](=O)[O-])cc2C1n1nc(-c2c(O)c3ccccc3oc2=O)cc1-c1ccc(Br)cc1` (stereo unspecified), the IC50 in the data set on Leishmania major [1] was found to be 2.47 µM; in the data set on Leishmania major [2], 3.88 µM.
For `CN1C(=O)C(n2nc(-c3c(O)c4ccccc4oc3=O)cc2-c2ccc(F)cc2)c2cc(Cl)ccc21` (stereo unspecified), in that order: 4.05 µM and 6.82 µM.
The corresponding values for `O=C1C(n2nc(-c3c(O)c4ccccc4oc3=O)cc2-c2ccc(Cl)cc2)c2ccccc2N1CCc1ccccc1` (stereo unspecified) are 5.92 µM and 8.47 µM.
The corresponding values for `O=C1C(n2nc(-c3c(O)c4ccccc4oc3=O)cc2-c2ccc(Br)cc2)c2ccccc2N1CCc1ccccc1` (stereo unspecified) are 7.21 µM and 9.44 µM.
On to `CCCN1C(=O)C(n2nc(-c3c(O)c4ccccc4oc3=O)cc2-c2ccc(F)cc2)c2cc(Cl)ccc21` (stereo unspecified), for which the results for the IC50 in the data set with Leishmania major [1] and in the data set with Leishmania major [2] were 4.64 µM and 5.82 µM, respectively.
For `CC(C)CN1C(=O)C(n2nc(-c3c(O)c4ccccc4oc3=O)cc2-c2ccc(Br)cc2)c2cc(Cl)ccc21` (stereo unspecified), in that order: 5.07 µM and 6.64 µM.
The corresponding values for `CCCN1C(=O)C(n2nc(-c3c(O)c4ccccc4oc3=O)cc2-c2ccc(Cl)cc2)c2cc(Cl)ccc21` (stereo unspecified) are 5.6 µM and 7.29 µM.
Molecule `COc1ccc(-c2cc(NC(=O)N3CCC(Cc4ccccc4)CC3)[nH]n2)cc1` displayed a half-maximal inhibitory concentration (IC50) with Leishmania infantum of 19 µM.
`CC(C)CN1C(=O)C(n2nc(-c3c(O)c4ccccc4oc3=O)cc2-c2ccc(Cl)cc2)c2cc(Cl)ccc21` (stereo unspecified): the concentration for half-maximal inhibition (IC50) in the data set on Leishmania major [1] worked out at 6.59 µM; with Leishmania major [2] it was 8.25 µM.
For `CC(C)CN1C(=O)C(n2nc(-c3c(O)c4ccccc4oc3=O)cc2-c2ccc(Cl)cc2)c2cc(Br)ccc21` (stereo unspecified), in that order: 5.99 µM and 7.54 µM.
On to `COc1cc(Cc2cnc(N)nc2N)cc(OC)c1OC` [TRIMETHOPRIM], for which, in the data set with Leishmania major [5], the Survival amounted to 99%. Further, the survival at 100 µM in the data set on Leishmania major [22] came out at 72%.
